# From patent US20070134255A1 (priority 2003, published 2007)
# Where two headings read alike, the source gives them in different places.
# Tests used:
# hMPV [1] = assay: Ribavirin as a therapeutic (added post-infection): hMPV infected Vero cells counted by immune fluorescence; type: cell-based, Human Metapneumovirus; settings: for inhibition at 25 µg/mL: human metapneumovirus, Vero, read-out: inhibition of viral replication
# Description: Percentage of cells infected with hMPV. Cells were infected with 30 TCID50 of hMPV and after 0, 2, 4, 8 and 16 hours, post-infection, 0, 5, 10, 25, 50 or 100 microgram of Ribavirin was added. Three days post-infection, cells were fixed and stained with a hMPV-specific polyclonal antibody, and the number of hMPV positive and negative cells were counted in 5 fields.
# (§1) Vero cells (African green monkey kidney cells) were maintained and passaged in Iscove's Modified Dulbecco's Medium (IMDM) containing L-glutamine (2 mM), penicillin (100 U/ml), streptomycin (100 μg/ml) and 10% fetal calf serum (FCS) and incubated in a humidified atmosphere at 37° C. Virus infection medium contained bovine serum albumin (BSA; 0.3%) and trypsin (2.5×10^−4%) instead of FCS. Human Metapneumovirus stocks were prepared by inoculating Vero cells with hMPV, and harvesting 7-10 days post-infection, when there were visible cytopathic effects. The virus was stored at −70° C. and titrated by end point dilution on Vero cells.
# Cells were seeded in 24 well plates as described above. The next day, cells were inoculated with 10 or 100 TCID50 of hMPV in the absence of Ribavirin. Two hours post-infection, the supernatant was aspirated and the cells were washed in phosphate-buffered saline (PBS) to remove virus inoculum. Fresh medium was added and the cells were incubated at 37° C. At different time points (2, 4, 8 and 16 hours) after infection, Ribavirin was added to the cells to reach concentrations of 0, 5, 25 or 50 μg/ml.
# (§2) The plates were incubated at 37° C. for 1 or 3 days. Medium was refreshed every second day and Ribavirin was maintained in the medium at all times at the appropriate concentration. After the indicated incubation period, medium was removed, the cells were washed with PBS and cells were fixed with 80% acetone. Staining for immune fluorescence analysis was performed by incubating infected cells with guinea pig anti-hMPV serum in PBS for 1 hour, followed by a FITC-labeled rabbit anti-guinea pig polyclonal antibody preparation (DAKO) in PBS for 1 hour. Background staining was finally performed with eriochrome black before analysis under an immune fluorescence microscope. Infected cells were counted in 5 fields under high power magnification (320×). Results are presented as the total number of infected cells counted in these 5 fields
# hMPV strain NL/01/00 = assay: Inhibition of hMPV by Ribavirin and neutralizing antibodies in Vero cells (immunofluorescence, estimated percentages of infected cells); type: cell-based, Human Metapneumovirus
# Description: Passaging and seeding Vero cells (clone 118) was done in standard DMEM medium, supplemented with 10% FCS, L-glutamin and antibiotics (penicillin and streptomycin). Cells were seeded approximately 1:4 in 48 wells plates, so that cells would be ±75% confluent the next day. Infecting cells was done in IMDM medium with […], Pen/Strep and L-glutamin.
# […]. Plates were finally spun at 1500 g for 5 minutes and incubated at 37C in a humidified atmosphere for 3 days. After 3 days, from duplicate wells of each experimental condition the cells and supernatant were harvested and frozen at −70 C. Aliquots from these virus cultures were used for RNA isolation and subsequent quantification of viral genomic copy numbers by real-time RT-PCR on a TAQMAN® machine. The other duplicate wells from each experimental condition were stained for hMPV by immunofluorescence and numbers of infected cells were counted under a fluorescence microscope. Briefly, cells were washed with PBS and fixed with 80% acetone, washed again and subsequently incubated with a guinea pig anti-hMPV serum. After removal of the antiserum, cells were incubated with a FITC-labeled rabbit-anti-guinea pig polyclonal antibody preparation, washed and analyzed.
# Note: Indicated results are estimated percentages of infected cells. Viral genomic copy numbers remain to be determined by taqman analyses (to be done this week)
# hMPV [2] = assay: Ribavirin as a prophylactic: hMPV infected Vero cells counted by immune fluorescence; type: cell-based, Human Metapneumovirus; settings: for reduction in number of infected cells: pre-incubation 2 h before infection, 100 TCID50 hMPV, day 1 post-infection, Vero cells
# Description: as §1
# One day prior to infection, the cells were seeded in 24 well plates at 30-40% confluency, and incubated overnight at 37° C. The next day, cells were pre-incubated with fresh medium containing 0, 5, 25 or 50 μg/ml of Ribavirin for 2 hours prior to virus infection. Following this pre-incubation, cells were infected with 10 or 100 TCID50 (tissue culture infectious doses) of hMPV, in the continuing presence of Ribavirin. After 2 hours, the virus inoculum was washed off and fresh medium containing Ribavirin was put onto the cells.
# as §2
# PIV type 3 (PIV3) = settings: cited from earlier work
compound,measurement,setting,value
NC(=O)c1ncn([C@@H]2O[C@H](CO)[C@@H](O)[C@H]2O)n1 [Ribavirin],inhibition of viral replication,"hMPV [1]; Ribavirin 25 μg/ml added after 16 hrs, read 3 days post-infection",insignificantly
same,reduction of infection,"hMPV [1]; Ribavirin 100 μg/ml added 8 hrs post-infection, read 3 days post-infection",80%
same,reduction of infection,"hMPV [1]; Ribavirin 100 μg/ml added 16 hrs post-infection, read 3 days post-infection",50%
same,reduction of infection,"hMPV [1]; Ribavirin 100 μg/ml added at 0, 2 or 4 hours post-infection, read 3 days post-infection",95%
same,percentage of MPV-positive cells,"hMPV [1]; Ribavirin 25 microgram/ml or higher, added 0-16 hours after infection, 3 days post-infection",greatly reduced
same,concentration of Ribavirin needed to see a significant effect,hMPV [1]; added 8 or 16 hrs post-infection,100 µg/mL
same,inhibition at 25 µg/mL,"hMPV [1]; Ribavirin 25 μg/ml added 4 or 8 hrs post-infection, read 3 days post-infection",10%
same,inhibition at 25 µg/mL,"hMPV [1]; Ribavirin 25 μg/ml added at 0 or 2 hrs post-infection, read 3 days post-infection",50%
same,effect on the growth of hMPV in vero cells in vitro,"hMPV strain NL/01/00; FIG. 3, 50 or 250 TCID50",profound effect
same,inhibition at 25 µg/mL,"hMPV strain NL/01/00; human metapneumovirus, Vero, 72 h, read-out: inhibition of viral proliferation",~90%
same,reduction in number of infected cells,hMPV [2]; 25 μg/ml Ribavirin,approximately 50%
same,decrease in the number of infected cells,hMPV [2]; 50 μg/ml Ribavirin added 2 hrs prior to or at the same time as virus infection,up to 95%
same,reduction in number of infected cells,hMPV [2]; 50 μg/ml Ribavirin,approximately 95%
same,effect on number of infected cells compared with day 1,"hMPV [2]; day 3 after infection, cells infected with 10 or 100 TCID50",same effect
same,improvement in outcome,"PIV type 3 (PIV3); Elizaga et al.: 18 of 24 PIV3 patients treated, starting three days after onset of symptoms",no improvement in outcome was observed
same,viral shedding of treated and untreated patients,PIV type 3 (PIV3); Nichols et al.: 31 of 55 patients with PIV3 pneumonia treated within 48 hours of diagnosis,similar
